Earlier results, collected in PMC4522190 (ChemistryOpen, 2015).

Tested on: proteases
Conditions: statement without data

cyclo-RRRWFW (head to tail) [c-WFW]
metabolic stability against proteases (in words): good metabolic stability against proteases
